Reference: US10842152B2, “Isothiazolo-based bicycles, processes for their preparation and their use as herbicides and/or plant growth regulators” (Bayer CropScience Aktiengesellschaft, priority 2017, dated 2020)

Legend:
Amaranthus retroflexus [1] = test: Herbicidal effect post-emergence; type: in vivo; details: 320 g/ha
Procedure, shortened: (§1)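 Greenhouse plants in sandy loam sprayed post-emergence at single-leaf stage (2-3 weeks after sowing) with WP or EC formulations plus 0.5% additive at 600 l water/ha. Damage scored visually after ca. 3 weeks versus untreated controls, 0% (as control) to 100% (dead).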

Setaria viridis [2] = test: Herbicidal effect post-emergence; type: in vivo; details: 320 g/ha
Procedure, shortened: as §1

Pharbitis purpurea = test: Herbicidal effect post-emergence; type: in vivo; details: 320 g/ha, visual grading after ca. 3 weeks (Table 7)
Procedure, shortened: as §1

Stellaria media [3] = test: Herbicidal effect post-emergence; type: in vivo; details: 320 g/ha, visual grading after ca. 3 weeks (Table 7)
Procedure, shortened: as §1

Viola tricolor [4] = test: Herbicidal effect post-emergence; type: in vivo; details: 320 g/ha
Procedure, shortened: as §1

[5] = system: Polygonum convolvulus (=Fallopia convolvulus); test: Herbicidal effect post-emergence; type: in vivo; details: 320 g/ha, visual grading after ca. 3 weeks (Table 7)
Procedure, shortened: as §1

Nilaparvata lugens = Nilaparvata lugens spray test; type: in vivo; details: application rate 500 g/ha, after 4 days, rice plants
Description: (§2) Solvent: 78.0 parts by weight of acetone • • 1.5 parts by weight of dimethylformamide
(§3) Emulsifier: alkylarylpolyglycol ether
(§4) To produce a suitable preparation of active compound, 1 part by weight of active compound is mixed with the stated amount of solvents and is diluted with water, containing an emulsifier concentration of 1000 ppm, to the desired concentration. Further test concentrations are prepared by dilution with emulsifier containing water.
Rice plants (Oryza sativa) are sprayed with a preparation of the active ingredient of the desired concentration and the plants are infested with the brown planthopper (Nilaparvata lugens).
After 4 days mortality in % is determined. 100% means all planthoppers have been killed and 0% means none of the planthoppers have been killed.

MATIN [6] = test: Herbicidal effect post-emergence; type: in vivo, Matricaria inodora; details: 320 g/ha, visual grading after ca. 3 weeks (Table 7)
Source text: Seeds of mono- and dicotyledonous weed plants and crop plants are sown in wood-fiber pots in sandy loam, covered with soil and grown in a greenhouse under controlled growth conditions. 2 to 3 weeks after sowing, the test plants are sprayed in the single-leaf stage. The compounds according to the invention, formulated in form of wettable powders (WP) or as emulsifiable concentrates (EC), are then sprayed onto the green plant parts as aqueous suspension or emulsion, with the addition of 0.5% of an additive, at an application rate of 600 l of water/ha (converted). After the test plants had been in the greenhouse for ca. 3 weeks under optimum growth conditions, the effect of the preparations is assessed visually in comparison with untreated controls (herbicidal effect in percent (%): 100% effect=plants have died off, 0% effect=as control plants).

Amaranthus retroflexus [7] = test: Herbicidal effect pre-emergence; type: in vivo; details: 320 g/ha, visual grading after ca. 3 weeks vs untreated controls
Procedure, shortened: (§5)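 Pre-emergence: WP or EC formulations applied as aqueous suspension/emulsion with 0.5% additive at 600 l water/ha onto covering soil of freshly sown pots in sandy loam. Greenhouse under optimum conditions; visual damage scored after ca. 3 weeks versus untreated controls (100% = plants died, 0% = as control).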

Setaria viridis [8] = test: Herbicidal effect pre-emergence; type: in vivo; details: 320 g/ha, visual grading after ca. 3 weeks vs untreated controls
Procedure, shortened: as §5

Viola tricolor [9] = test: Herbicidal effect pre-emergence; type: in vivo; details: 320 g/ha, visual grading after ca. 3 weeks vs untreated controls
Procedure, shortened: as §5

Abutilon theophrasti = test: Herbicidal effect post-emergence; type: in vivo; details: 320 g/ha, visual grading after ca. 3 weeks (Table 8)
Procedure, shortened: as §1

MATIN [10] = test: Herbicidal effect pre-emergence; type: in vivo, Matricaria inodora; details: 320 g/ha, visual grading after ca. 3 weeks vs untreated controls
Source text: Seeds of mono- and dicotyledonous weed plants and crop plants are sown in wood-fiber pots in sandy loam and covered with soil. The compounds according to the invention, formulated in the form of wettable powders (WP) or as emulsifiable concentrates (EC), are then applied to the surface of the covering soil as aqueous suspension or emulsion, with the addition of 0.5% of an additive, at an application rate of 600 l of water/ha (converted).
Following treatment, the pots are placed in a greenhouse and kept under optimum growth conditions for the test plants. The visual grading of the damage to the test plants is carried out after ca. 3 weeks in comparison to untreated controls (herbicidal effect in percent (%): 100% effect=plants have died off, 0% effect=as control plants).

Phaedon cochleariae = Phaedon cochleariae spray test; type: in vivo; details: application rate 500 g/ha, after 7 days, Chinese cabbage leaf disks
Description: as §2, §3, §4
Chinese cabbage (Brassica pekinensis) leaf disks are sprayed with a preparation of the active ingredient of the desired concentration. Once dry, the leaf disks are infested with mustard beetle larvae (Phaedon cochleariae).
After 7 days mortality in % is determined. 100% means all beetle larvae have been killed and 0% means none of the beetle larvae have been killed.

Alopecurus myosuroides = test: Herbicidal effect pre-emergence; type: in vivo; details: 320 g/ha, visual grading after ca. 3 weeks vs untreated controls
Procedure, shortened: as §5

Stellaria media [11] = test: Herbicidal effect pre-emergence; type: in vivo; details: 320 g/ha, visual grading after ca. 3 weeks vs untreated controls
Procedure, shortened: as §5

Nezara viridula = Nezara viridula spray test; type: in vivo; details: application rate 500 g/ha, after 4 days, barley plants
Description: as §2, §3
as §4, with “solvent,” for “solvents”, “and the concentrate” for “and”
Barley plants (Hordeum vulgare) infested with larvae of the southern green stink bug (Nezara viridula) are sprayed with a test solution containing the desired concentration of the active ingredient.
After 4 days mortality in % is determined. 100% means all the stink bugs have been killed; 0% means none of the stink bugs have been killed.

[12] = visual grading after ca. 3 weeks (Table 7)
[13] = visual grading after ca. 3 weeks (Table 8)
[14] = visual grading after ca. 3 weeks (Table 9)

Compound | mortality (Nilaparvata lugens) | herbicidal effect AMARE (Amaranthus retroflexus [7]) | herbicidal effect SETVI (Setaria viridis [8]) | herbicidal effect VIOTR (Viola tricolor [9]) | herbicidal effect MATIN (MATIN [10]) | herbicidal effect ALOMY (Alopecurus myosuroides) | herbicidal effect STEME (Stellaria media [11]) | further results
Nc1nsc2c1CC(CO)N(CC1CCCCC1)C2=O (stereo not drawn) [Example I-007] | 100% | 100% | 80% | 90% | – | – | – | herbicidal effect AMARE (Amaranthus retroflexus [1]; [12]): 100%; herbicidal effect SETVI (Setaria viridis [2]; [12]): 100%; herbicidal effect PHBPU (Pharbitis purpurea): 100%; herbicidal effect STEME (Stellaria media [3]): 100%; herbicidal effect VIOTR (Viola tricolor [4]; [12]): 100%; herbicidal effect POLCO [5]: 100%; herbicidal effect MATIN (MATIN [6]): 100%
CC(=O)Nc1nsc2c(=O)n(CC3CCCCC3)cc(Cl)c12 [Example I-084] | – | 100% | 100% | 100% | 100% | 100% | 100% | herbicidal effect AMARE (Amaranthus retroflexus [1]; [13]): 100%; herbicidal effect SETVI (Setaria viridis [2]; [13]): 100%; herbicidal effect ABUTH (Abutilon theophrasti): 100%; herbicidal effect VIOTR (Viola tricolor [4]; [13]): 100%; mortality (Phaedon cochleariae): 83%
COCC(=O)Nc1nsc2c(=O)n(CC3CCCCC3)cc(Br)c12 [Example I-087] | 100% | 100% | 100% | 100% | 90% | 100% | 100% | herbicidal effect AMARE (Amaranthus retroflexus [1]; [14]): 100%; herbicidal effect SETVI (Setaria viridis [2]; [14]): 100%; herbicidal effect VIOTR (Viola tricolor [4]; [14]): 100%; mortality (Nezara viridula): 90%
